Reference: patent US20250136568A1, “FUSED HETEROCYCLIC COMPOUNDS AS PI3KALPHA INHIBITORS” (Nanjing Zenshine Pharmaceuticals Co., Ltd., priority 2021, published 2025)
Where two headings read alike, the source gives them in different places.

Key:
Type in all cases: cell-based
[1] = tested on: PI3Kα wide type cell line SK-BR-3; assay: Cell Proliferation IC50 Assay (CellTiter-Glo), SK-BR-3; conditions: Homo sapiens, read-out: IC50 (μM) SK-BR-3
Text: (§1) PI3Kα H1047R mutation cell line T-47D and MDA-MB-453, E545K mutation cell line MDA-MB-361 and PI3Kα wide type cell line SK-BR-3 were purchased from Cobioer Biotech (cat. no CBP60397, CBP60386, CBP60383 and CBP60413 respectively). The CellTiter-Glo Direct Cell Proliferation Assay Kit was purchased from Prornega (cat. No. G7573)
(§2) For cell proliferation assay in each cell line: • a. Prepare complete medium (R PMI 1640, DMEM or McCoys): Add FBS and appropriate additives according to the information sheet provided by the vendor. Mix gently. • b. Prepare single cell suspension and count the cell numbers and adjust cells to appropriate density. • c. Add 80 μL of cell suspension to 96-well opaque-walled clear bottom plates according to the planned plate layout and place the plates in the CO2 incubator overnight. • d. Prepare intermediate plate: 10 μl of diluted test compounds or staurosporine solution (200×) is added to a 96 deep well plate. Then 390 μl of culture medium without FBS is added to the respective wells. • e. Transfer 20 μL of the solutions from the above intermediate plate to the wells of the plate prepared containing 80 μL of the culture medium and cells. The total dilution is 200 folds. • f. The cells were then incubated at 5% CO2, 37° C. for 72 hours. • g. Equilibrate the plate and its contents to room temperature for approximately 30 minutes. • h. Add 100 μL of CellTiter-Glo reagent to the assay plate • i. Mix contents for 10 minutes on an orbital shaker to induce cell lysis. • j. Allow the plate to incubate at room temperature for 10 minutes to stabilize luminescent signal, • k. Paste the clear bottom with white back seal and record luminescence with Varioskan LUX plate reader.
(§3) Inhibition % and IC50 value were calculated by the formula described below: […]

[2] = tested on: PI3Kα H1047R mutation cell line MDA-MB-453; assay: Cell Proliferation IC50 Assay (CellTiter-Glo), MDA-MB-453; conditions: Homo sapiens; MDA-MB-453 (H1047R), 72 hours, CellTiter-Glo; read-out: IC50 (μM) MDA-MB-453
Text: as §1, §2, §3

[3] = tested on: PI3Kα H1047R mutation cell line T-47D; assay: Cell Proliferation IC50 Assay (CellTiter-Glo), T-47D; conditions: Homo sapiens, read-out: IC50 (μM) T47D
Text: as §1, §2, §3

[4] = SK-BR-3 (PI3Kα wild type), 72 hours, CellTiter-Glo
[5] = T47D, 72 h, T47D (H1047R), 72 hours, CellTiter-Glo

IC50 [1, 4] [µM] | IC50 [2] [µM] | IC50 [3, 5] [µM] | SMILES | further results
> 10 | 2.34 |  | Cc1cc([C@H](C)Nc2ccccc2C(=O)O)c2oc(-c3ccc(N4CCOCC4)cc3)c(C)c(=O)c2c1 (single isomer, unassigned) [Example 53B] | 
> 10 | 0.25 |  | CCN1Cc2cc(-c3cc(=O)c4cc(C)cc(C(C)Nc5ccccc5C(=O)O)c4o3)ccc2C1=O (centres unmarked) [Example 7, 2-((1-(2-(2-ethyl-1-oxoisoindolin-5-yl)-6-methyl-4-oxo-4H-chromen-8-yl)ethyl)amino)benzoic acid] | 
> 10 | > 10 |  | Cc1cc(C(C)Nc2ccccc2C(=O)O)c2oc(-c3ccc4c(c3)N(C)C(=O)C4)cc(=O)c2c1 (centres unmarked) [Example 21, 2-((1-(6-methyl-2-(1-methyl-2-oxoindolin-6-yl)-4-oxo-4H-chromen-8-yl)ethyl)amino)benzoic acid] | 
> 10 | 4.07 |  | Cc1cc(C(C)Nc2ccccc2C(=O)O)c2oc(-c3cccc4c3CN(C)C4=O)cc(=O)c2c1 (centres unmarked) [Example 24, 2-((1-(6-methyl-2-(2-methyl-1-oxoisoindolin-4-yl)-4-oxo-4H-chromen-8-yl)ethyl)amino)benzoic acid] | 
> 10 | 0.74 |  | Cc1cc(C(C)Nc2ccccc2C(=O)O)c2oc(-c3cncs3)cc(=O)c2c1 (centres unmarked) [Example 27, 2-((1-(6-methyl-4-oxo-2-(thiazol-5-yl)-4H-chromen-8-yl)ethyl)amino)benzoic acid] | 
> 10 | 0.39 |  | Cc1cc(C(C)Nc2ccccc2C(=O)O)c2oc(-c3ccc4c(c3)CN(C(C)C)C4=O)cc(=O)c2c1 (centres unmarked) [Example 44, -((1-(2-(2-isopropyl-1-oxoisoindolin-5-yl)-6-methyl-4-oxo-4H-chromen-8-yl)ethyl)amino)benzoic acid] | 
> 10 | 0.97 |  | Cc1cc(C(C)Nc2ccccc2C(=O)O)c2oc(-c3ccc4c(c3)CN(C3COC3)C4=O)cc(=O)c2c1 (centres unmarked) [Example 45, 2-((1-(6-methyl-2-(2-(oxetan-3-yl)-1-oxoisoindolin-5-yl)-4-oxo-411-chromen-8-yl)ethyl)amino)benzoic acid] | 
> 10 | 0.42 |  | Cc1cc(C(C)Nc2ccccc2C(=O)O)c2oc(-c3ccc4c(c3)CN(Cc3ccccc3)C4=O)cc(=O)c2c1 (centres unmarked) [Example 46, 2-((1-(2-(2-benzyl-1-oxoisoindolin-5-yl)-6-methyl-4-oxo-4H-chromen-8-yl)ethyl)amino)benzoic acid] | 
> 10 | 0.24 |  | Cc1cc(C(C)Nc2ccccc2C(=O)O)c2oc(-c3ccc4c(c3)CCN(C)C4=O)cc(=O)c2c1 (centres unmarked) [Example 47, 2-((1-(6-methyl-2-(2-methyl-1-oxo-1,2,3,4-tetrahydroisoquinolin-6-yl)-4-oxo-4H-chromen-8-yl)ethyl)amino)benzoic acid] | 
> 10 | 0.76 |  | Cc1cc(C(C)Nc2ccccc2C(=O)O)c2oc(-c3ccc(C(=O)N(C)C)c(C)c3)cc(=O)c2c1 (centres unmarked) [Example 48, 2-((1-(2-(4-(dimethylcarbamoyl)-3-methylphenyl)-6-methyl-4-oxo-4H-chromen-8-yl)ethyl)amino)benzoic acid] | 
> 10 | 6.39 |  | Cc1cc(C(C)Nc2ccccc2C(=O)O)c2oc(-c3ccc(=O)n(C)c3)cc(=O)c2c1 (centres unmarked) [Example 50, 2-((1-(6-methyl-2-(1-methyl-6-oxo-1,6-dihydropyridin-3-yl)-4-oxo-4H-chromen-8-yl)ethyl)amino)benzoic acid] | 
> 10 | 2.48 |  | Cc1cc(C(C)Nc2ccccc2C(=O)O)c2oc(-c3ccc4cn(C)nc4c3)cc(=O)c2c1 (centres unmarked) [Example 51, 2-((1-(6-methyl-2-(2-methyl-211-indazol-6-yl)-4-oxo-4H-chromen-8-yl)ethyl)amino)benzoic acid] | 
> 10 |  | 0.092 | Cc1cc([C@@H](C)Nc2ccccc2C(=O)O)c2oc(-c3ccc(N4CCC[C@H](N(C)C)C4)cc3)c(C)c(=O)c2c1 [Example 168, 2-(((R)-1-(2-(4-((S)-3-(dimethylamino)piperidin-1-yl)phenyl)-3,6-dimethyl-4-oxo-41H-chromen-8-yl)ethyl)amino)benzoic acid] | 
> 10 |  | 0.11 | Cc1cc([C@@H](C)Nc2ccccc2C(=O)O)c2oc(-c3ccc(N4CC[C@H](N(C)C)C4)cc3)c(C)c(=O)c2c1 [Example 169, 2-(((R)-1-(2-(4-((S)-3-(dimethylamino)pyrrolidin-1-yl)phenyl)-3,6-dimethyl-4-oxo-4H-chromen-8-yl)ethyl)amino)benzoic acid] | 
> 10 |  | 0.096 | Cc1cc([C@@H](C)Nc2ccccc2C(=O)O)c2oc(-c3ccc(N4CC(N(C)C)C4)cc3)c(C)c(=O)c2c1 [Example 170, (R)-2-((1-(2-(4-(3-(dimethylamino)azetidin-1-yl)phenyl)-3,6-dimethyl-4-oxo-4H-chromen-8-yl)ethyl)amino)benzoic acid] | 
> 10 |  | 0.072 | Cc1cc([C@@H](C)Nc2ccccc2C(=O)O)c2oc(-c3ccc(OC4CN(C)C4)cc3)c(C)c(=O)c2c1 [Example 171, (R)-2-((1-(3,6-dimethyl-2-(4-((1-methylazetidin-3-yl)oxy)phenyl)-4-oxo-4H-chromen-8-yl)ethyl)amino)benzoic acid] | 
 |  |  | Cc1cc(C(C)Nc2ccccc2P(=O)(O)O)c2oc(-c3ccc4nn(C)cc4c3)c(C)c(=O)c2c1 (centres unmarked) [Example 176] | IC50 ([1]; SK-BR-3, 72 h): > 10 µM; IC50 ([3]; T47D, 72 h): > 10 µM
> 10 |  | 0.31 | Cc1cc(C(C)Nc2ccccc2-c2nc(=O)o[nH]2)c2oc(-c3ccc4nn(C)cc4c3)c(C)c(=O)c2c1 (centres unmarked) [Example 177, 3-(2-((1-(3,6-dimethyl-2-(2-methyl-2H-indazol-5-yl)-4-oxo-4H-chromen-8-yl)ethyl)amino)phenyl)-1,2,4-oxadiazol-5(2H)-one] | 
8.68 |  | 0.16 | Cc1cc([C@@H](C)Nc2ccc(Cl)nc2C(=O)O)c2oc(-c3ccc(-c4cnn(C)c4)nc3)c(C)c(=O)c2c1 [Example 186, (R)-6-chloro-3-((1-(3,6-dimethyl-2-(6-(1-methyl-1H-pyrazol-4-yl)pyridin-3-yl)-4-oxo-4H-chromen-8-yl)ethyl)amino)picolinic acid] | 
> 10 |  | 0.13 | Cc1cc([C@@H](C)Nc2ccccc2C(=O)O)c2oc(-c3ccc(CN4CCN(C)CC4)nc3)c(C)c(=O)c2c1 [Example 188, (R)-2-((1-(3,6-dimethyl-2-(6-((4-methylpiperazin-1-yl)methyl)pyridin-3-yl)-4-oxo-4H-chromen-8-yl)ethyl)amino)benzoic acid] | 
> 10 |  | 0.11 | Cc1cc([C@@H](C)Nc2ccc(Cl)nc2C(=O)O)c2oc(-c3ccc(CN4CCN(C)CC4)cc3)c(C)c(=O)c2c1 [Example 189, (R)-6-chloro-3-((1-(3,6-dimethyl-2-(4-((4-methylpiperazin-1-yl)methyl)phenyl)-4-oxo-4H-chromen-8-yl)ethyl)amino)picolinic acid] | 
6.05 |  | 0.27 | COC(=O)c1ccccc1N[C@H](C)c1cc(C)cc2c(=O)c(C)c(-c3ccc(-c4cnn(C)c4)nc3)oc12 [Example 190, methyl (R)-2-((1-(3,6-dimethyl-2-(6-(1-methyl-1H-pyrazol-4-yl)pyridin-3-yl)-4-oxo-4H-chromen-8-yl)ethyl)amino)benzoate] | 
2.02 |  | 0.27 | CNC(=O)c1ccccc1N[C@H](C)c1cc(C)cc2c(=O)c(C)c(-c3ccc(-c4cnn(C)c4)nc3)oc12 [Example 191, (R)-2-((1-(3,6-dimethyl-2-(6-(1-methyl-1H-pyrazol-4-yl)pyridin-3-yl)-4-oxo-4H-chromen-8-yl)ethyl)amino)-N-methylbenzamide] | 
> 10 |  | 0.1 | Cc1cc([C@@H](C)Nc2ccccc2C(=O)O)c2oc(-c3ccc(OCCN(C)C)nc3)c(C)c(=O)c2c1 [Example 192, (R)-2-((1-(2-(6-(2-(dimethylamino)ethoxy)pyridin-3-yl)-3,6-dimethyl-4-oxo-4H-chromen-8-yl)ethyl)amino)benzoic acid] | 

SMILES | IC50 [1, 4] [µM] | IC50 [2] [µM] | IC50 [3, 5] [µM] | further results
Cc1cc([C@@H](C)Nc2ccccc2C(=O)O)c2oc(-c3ccc(C4CN(C)CCO4)cc3)c(C)c(=O)c2c1 (stereo partly drawn) [Example 167, 2-(((1R)-1-(3,6-dimethyl-2-(4-(4-methylmorpholin-2-yl)phenyl)-4-oxo-4H-chromen-8-yl)ethyl)amino)benzoic acid] | 8.34 |  |  | IC50 ([3]; T47D (H1047R), 72 hours, CellTiter-Glo): 0.092 µM
